Test results from publication PMC7457602 (bioRxiv, 2020).

Molecular target: SARS-CoV-2 3CLpro (Severe acute respiratory syndrome coronavirus 2, UniProt P0DTD1)

O=c1c2ccccc2[se]n1-c1ccccc1 [Ebselen]
activity in the transfection-based assay (rescue of 3CLpro induced cytotoxicity): did not observe activity
